According to patent publication US20200031820A1, “3-CARBOXYLIC ACID PYRROLES AS NRF2 REGULATORS” (GLSXOSMITHKLINE INTELLECTUAL PROPERTY DEVELOPMENT LIMITED, priority 2016, published 2020):

tested on: NQO1 specific enzyme activity in BEAS-2B cells (marker for NRF2 activation); experiment: Beas2B NQO1 MTT Assay; type: cell-based; conditions: Homo sapiens, NQO1 specific activity induction, 48 hours with compound
From the text: NAD(P)H:quinone oxidoreductase 1 (NQO1), also called DT diaphorase, is a homodimeric FAD-containing enzyme that catalyses obligatory NAD(P)H-dependent two-electron reductions of quinones and protects cells against the toxic and neoplastic effects of free radicals and reactive oxygen species arising from one-electron reductions. The transcription of NQO1 is finely regulated by NRF2, and thus NQO1 activity is a good marker for NRF2 activation. On day one, frozen BEAS-2B cells (ATCC) were thawed in a water bath, counted, and re-suspended at a concentration of 250,000 cells/mL. Fifty microliters of cells were plated in 384 well black clear-bottomed plates. Plates were incubated at 37° C., 5% CO2 overnight. On day two, plates were centrifuged and 50 nL of compound or controls were added to the cells. Plates were then incubated at 37° C., 5% CO2 for 48 hours. On day four, medium was aspirated from the plate and crude cell lysates were made by adding 13 uL of 1× Cell Signaling Technologies lysis buffer with 1 Complete, Mini, EDTA-free Protease Inhibitor Tablet (Roche) for each 10 mL of lysis buffer. After lysis plates were incubated for 20 minutes at room temperature. Two microliters of lysate were removed for use in Cell Titer Glo assay (Promega) and MTT cocktail was prepared (Prochaska et. al. 1998) for measurement of NQO1 activity. Fifty microliters of MTT cocktail was added to each well, plate was centrifuged, and analysed on an Envision plate reader (Perkin Elmer) using Absorbance 570 nm label for 30 minutes. Product formation was measured kinetically and the pEC50 of NQO1 specific activity induction was calculated by plotting the change in absorbance (Delta OD/min) versus the log of compound concentration followed by 3-parameter fitting.
EC50s <1 nM (+++++), EC50s 10 nM-1 nM (++++), EC50s 10-100 nM (+++), EC50s 100 nM-1 μM (++), EC50s 1-10 μM (+), EC50s >10 μM (−), or were not determined (ND).

Q: Which EC50 does the source give for `C[C@H]1Cc2ccc(C(F)(F)F)cc2S(=O)(=O)N(Cc2cccc(-n3ccc(C(=O)O)c3[C@@H]3C[C@H]3c3cn(C)nn3)c2)C1` [Example 4, 1-(3-(((S)-4-methyl-1,1-dioxido-8-(trifluoromethyl)-4,5-dihydrobenzo[f][1,2]thiazepin-2(3H)-yl)methyl)phenyl)-2-((1R,2R)-2-(1-methyl-1H-1,2,3-triazol-4-yl)cyclopropyl)-1H-pyrrole-3-carboxylic acid] here?
A: The EC50 was 1 to 10 nM.

Q: How did the EC50 turn out when `CCC[C@@H]1CCCCN1C(=O)c1cccc(-c2cccc(-n3ccc(C(=O)O)c3[C@@H]3C[C@H]3c3cn(C)nn3)c2)c1F` [Example 16, 1-(2′-fluoro-3′-((R)-2-propylpiperidine-1-carbonyl)-[1,1′-biphenyl]-3-yl)-2-((1R,2R)-2-(1-methyl-1H-1,2,3-triazol-4-yl)cyclopropyl)-1H-pyrrole-3-carboxylic acid] was run?
A: The EC50 was 1 to 10 nM.

Q: Which EC50 does the source give for `C[C@H](Oc1cccc(-c2cccc(-n3ccc(C(=O)O)c3[C@@H]3C[C@H]3c3cn(C)nn3)c2)c1)C1CCCCC1` [Example 18, 1-(3′-((S)-1-cyclohexylethoxy)-[1,1′-biphenyl]-3-yl)-2-((1R,2R)-2-(1-methyl-1H-1,2,3-triazol-4-yl)cyclopropyl)-1H-pyrrole-3-carboxylic acid] here?
A: The EC50 was 10 to 100 nM.
